Experimental findings from patent US20110077402A1, “ADMINISTRATION OF DIPEPTIDYL PEPTIDASE INHIBITORS” (priority 2007, published 2011) are described below.

For this assay, the system named is plasma glucose. In words: Effect of co-administration with pioglitazone on plasma glucose in db/db mice. The format is in vivo. Conditions: male db/db mice, 21 days in powder chow (0.03% succinate salt of Compound I and/or 0.0075% pioglitazone hydrochloride), feeding condition, average (n=7) ± standard deviation; control 472.9 ± 74.6. The source says: Male db/db (BKS.Cg-+Lepr^db/+Lepr^db) mice (6 weeks of age, CLEA Japan (Tokyo, Japan)) were divided into 4 groups (n=7 in each group) comprising Group A to Group D. Group A had free access to CE-2 powder chow (CLEA Japan) for 21 days. […] During 21 days of administration of the powder chow, there were not significant differences in the administration amount of the powder chow in the above 4 groups. After 21 days of administration of the powder chow, blood samples were taken from the orbital veins of the mice by capillary pipette under feeding condition, and plasma glucose levels were enzymatically measured by using Autoanalyzer 7080 (Hitachi, Japan). The values in the table means average (n=7)±standard deviation.

On to `Cn1c(=O)cc(N2CCC[C@@H](N)C2)n(Cc2cc(F)ccc2C#N)c1=O` [Compound I, 2-[6-(3-Amino-piperidin-1-yl)-3-methyl-2,4-dioxo-3,4-dihydro-2H-pyrimidin-1-ylmethyl]-4-fluoro-benzonitrile], for which the “Plasma Glucose” value turned out to be 410.3 ± 47.9 mg/dL.

With `CCc1ccc(CCOc2ccc(CC3SC(=O)NC3=O)cc2)nc1` (centres unmarked) [Pioglitazone, 5-{[4-(2-(5-ethyl-2-pyridyl)ethoxy)phenyl]-methyl}-thiazolidine-2,4-dione], the “Plasma Glucose” value was 394.4 ± 47.9 mg/dL.
